# Assay results published in patent publication US7138361B2, “Herbicidal heterocycles” (E. I. du Pont de Nemours and Company, priority 2000, dated 2006).
# Assays:
# Assay type in all cases: in vivo
# [1] = tested on: blackgrass (Alopecurus myosuroides); assay: Test B postemergence; details: 13 to 15 days
# In short: (§1)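 Ratings on a 0 to 100 visual scale (100 complete control) compare treated plants with controls 13 to 15 days after application. Treatments were pre- or postemergence sprays of compound in non-phytotoxic solvent with surfactant.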
# corn (Zea mays) [2] = assay: Test B postemergence; details: 13 to 15 days
# In short: as §1
# [3] = tested on: morning glory (Ipomoea hederacea); assay: Test B postemergence; details: 13 to 15 days
# In short: as §1
# [4] = tested on: giant foxtail (Setaria faberii); assay: Test B postemergence; details: 13 to 15 days
# In short: as §1
# [5] = tested on: pigweed (Amaranthus retroflexus); assay: Test B postemergence; details: 13 to 15 days
# In short: as §1
# [6] = tested on: Surinam grass (Brachiaria decumbens); assay: Test B postemergence; details: 13 to 15 days
# In short: as §1
# [7] = tested on: wheat (Triticum aestivum); assay: Test B postemergence; details: 13 to 15 days
# In short: as §1
# [8] = tested on: barnyardgrass (Echinochloa crus-galli); assay: Test B postemergence; details: 13 to 15 days
# In short: as §1
# [9] = tested on: velvetleaf (Abutilon theophrasti); assay: Test B postemergence; details: 13 to 15 days
# In short: as §1
# corn (Zea mays) [10] = assay: Test B preemergence
# In short: as §1
# [11] = tested on: morning glory (Ipomoea hederacea); assay: Test B preemergence
# In short: as §1
# [12] = tested on: giant foxtail (Setaria faberii); assay: Test B preemergence
# In short: as §1
# [13] = tested on: pigweed (Amaranthus retroflexus); assay: Test B preemergence
# In short: as §1
# rice (Oryza saliva) [14] = assay: Test B preemergence
# In short: as §1
# [15] = tested on: Surinam grass (Brachiaria decumbens); assay: Test B preemergence
# In short: as §1
# [16] = tested on: crabgrass (Digitaria sanguinalis); assay: Test B preemergence
# In short: as §1
# [17] = tested on: lambsquarters (Chenopodium album); assay: Test B preemergence
# In short: as §1
# [18] = tested on: barnyardgrass (Echinochloa crus-galli); assay: Test B preemergence
# In short: as §1
# [19] = tested on: cocklebur (Xanthium strumarium); assay: Test B preemergence; details: scale 0 to 100, 0 no effect, 100 complete control
# In short: as §1
# [20] = tested on: velvetleaf (Abutilon theophrasti); assay: Test B preemergence
# In short: as §1
# [21] = tested on: duck salad (Heteranthera limosa); assay: Test C flooded paddy test
# In short: (§2)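 Visual injury score, 0 (no effect) to 100 (complete control), relative to controls. Paddy plants treated at 2-leaf stage; greenhouse hold 12–14 d before rating.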
# rice (Oryza saliva) [22] = assay: Test C flooded paddy test
# In short: as §2
# [23] = tested on: barnyardgrass (Echinochloa crus-galli); assay: Test C flooded paddy test
# In short: as §2
# [24] = tested on: smallflower flatsedge (Cyperus difformis); assay: Test C flooded paddy test; details: for Flatsedge plant response rating: Flooded Paddy, scale 0 to 100, 0 no effect, 100 complete control; for Plant response rating, Flatsedge: scale 0 to 100 (0 no effect, 100 complete control)
# In short: as §2
# [25] = Rate 125 g/ha, scale 0 (no effect) to 100 (complete control)
# [26] = Rate 250 g/ha, scale 0 (no effect) to 100 (complete control)
# [27] = Rate 500 g/ha, scale 0 to 100, 0 is no effect, 100 is complete control
# [28] = Preemergence, Rate 500 g/ha, scale 0 to 100, 0 no effect, 100 complete control
# [29] = preemergence, Rate 62 g/ha, scale of 0 to 100 where 0 is no effect and 100 is complete control, 13 to 15 days
# [30] = preemergence, Rate 125 g/ha, scale 0 to 100, 0 no effect, 100 complete control
# [31] = preemergence, Rate 250 g/ha, scale 0 to 100, 0 no effect, 100 complete control
# [32] = Flooded Paddy, Rate 500 g/ha, scale 0 to 100
# [33] = Flooded Paddy, Rate 250 g/ha, scale 0 to 100, 0 no effect, 100 complete control
# [34] = flooded paddy test, Rate 62 g/ha, scale 0 to 100 (0 no effect, 100 complete control)
# [35] = flooded paddy test, Rate 125 g/ha, scale 0 to 100 (0 no effect, 100 complete control)
# [36] = flooded paddy test, Rate 16 g/ha, visually evaluated after 12 to 14 days, 0 = no effect, 100 = complete control
structure (smiles),measurement,setting,value
CC1(C)CCc2cn(C3CCN(c4cccc(C(F)(F)F)c4)C3=O)nc21 (stereo not drawn) [Compound 10],"Plant response rating, Blackgrass",[1]; [25],0
same,"Plant response rating, Blackgrass",[1]; [26],0
same,"Plant response rating, Blackgrass",[1]; [27],0
same,"Plant response rating, Corn",corn (Zea mays) [2]; [25],0
same,"Plant response rating, Corn",corn (Zea mays) [2]; [26],0
same,"Plant response rating, Corn",corn (Zea mays) [2]; [27],0
same,"Plant response rating, Morningglory",[3]; [25],0
same,"Plant response rating, Morningglory",[3]; [26],0
same,"Plant response rating, Morningglory",[3]; [27],0
same,"Plant response rating, Foxtail, Giant",[4]; [25],0
same,"Plant response rating, Foxtail, Giant",[4]; [26],0
same,"Plant response rating, Foxtail, Giant",[4]; [27],0
same,"Plant response rating, Pigweed",[5]; [25],0
same,"Plant response rating, Pigweed",[5]; [26],0
same,"Plant response rating, Pigweed",[5]; [27],0
same,"Plant response rating, Surinam grass",[6]; [25],0
same,"Plant response rating, Surinam grass",[6]; [26],0
same,"Plant response rating, Surinam grass",[6]; [27],0
same,"Plant response rating, Wheat",[7]; [25],0
same,"Plant response rating, Wheat",[7]; [26],0
same,"Plant response rating, Wheat",[7]; [27],0
same,"Plant response rating, Barnyardgrass",[8]; [25],0
same,"Plant response rating, Barnyardgrass",[8]; [26],0
same,"Plant response rating, Barnyardgrass",[8]; [27],0
same,"Plant response rating, Velvetleaf",[9]; [25],0
same,"Plant response rating, Velvetleaf",[9]; [26],0
same,"Plant response rating, Velvetleaf",[9]; [27],0
same,"Plant response rating, Corn",corn (Zea mays) [10]; [28],0
same,"Plant response rating, Corn",corn (Zea mays) [10]; [29],0
same,"Plant response rating, Corn",corn (Zea mays) [10]; [30],0
same,"Plant response rating, Corn",corn (Zea mays) [10]; [31],30
same,"Plant response rating, Morningglory",[11]; [28],0
same,"Plant response rating, Morningglory",[11]; [29],0
same,"Plant response rating, Morningglory",[11]; [30],0
same,"Plant response rating, Morningglory",[11]; [31],0
same,"Plant response rating, Foxtail, Giant",[12]; [28],0
same,"Plant response rating, Foxtail, Giant",[12]; [29],80
same,"Plant response rating, Foxtail, Giant",[12]; [30],0
same,"Plant response rating, Foxtail, Giant",[12]; [31],100
same,"Plant response rating, Pigweed",[13]; [28],0
same,"Plant response rating, Pigweed",[13]; [29],90
same,"Plant response rating, Pigweed",[13]; [30],0
same,"Plant response rating, Pigweed",[13]; [31],100
same,"Plant response rating, Rice",rice (Oryza saliva) [14]; [28],0
same,"Plant response rating, Rice",rice (Oryza saliva) [14]; [29],0
same,"Plant response rating, Rice",rice (Oryza saliva) [14]; [30],0
same,"Plant response rating, Rice",rice (Oryza saliva) [14]; [31],0
same,"Plant response rating, Surinam grass",[15]; [28],0
same,"Plant response rating, Surinam grass",[15]; [29],20
same,"Plant response rating, Surinam grass",[15]; [30],0
same,"Plant response rating, Surinam grass",[15]; [31],30
same,"Plant response rating, Crabgrass",[16]; [28],0
same,"Plant response rating, Crabgrass",[16]; [29],100
same,"Plant response rating, Crabgrass",[16]; [30],0
same,"Plant response rating, Crabgrass",[16]; [31],100
same,"Plant response rating, Lambsquarters",[17]; [28],0
same,"Plant response rating, Lambsquarters",[17]; [29],100
same,"Plant response rating, Lambsquarters",[17]; [30],0
same,"Plant response rating, Lambsquarters",[17]; [31],100
same,"Plant response rating, Barnyardgrass",[18]; [28],0
same,"Plant response rating, Barnyardgrass",[18]; [29],0
same,"Plant response rating, Barnyardgrass",[18]; [30],0
same,"Plant response rating, Barnyardgrass",[18]; [31],100
same,"Plant response rating, Cocklebur","[19]; Preemergence, Rate 500 g/ha",0
same,"Plant response rating, Cocklebur","[19]; preemergence, Rate 125 g/ha",0
same,"Plant response rating, Cocklebur","[19]; preemergence, Rate 250 g/ha",0
same,"Plant response rating, Velvetleaf",[20]; [28],0
same,"Plant response rating, Velvetleaf",[20]; [29],0
same,"Plant response rating, Velvetleaf",[20]; [30],0
same,"Plant response rating, Velvetleaf",[20]; [31],0
same,"Plant response rating, Ducksalad",[21]; [32],90
same,Ducksalad plant response rating,[21]; [33],90
same,"Plant response rating, Ducksalad",[21]; [34],0
same,"Plant response rating, Ducksalad",[21]; [35],20
same,"Plant response rating (scale 0 to 100), Ducksalad",[21]; [36],0
same,"Plant response rating, Rice",rice (Oryza saliva) [22]; [32],60
same,Rice plant response rating,rice (Oryza saliva) [22]; [33],10
same,"Plant response rating, Rice",rice (Oryza saliva) [22]; [34],0
same,"Plant response rating, Rice",rice (Oryza saliva) [22]; [35],0
same,"Plant response rating (scale 0 to 100), Rice",rice (Oryza saliva) [22]; [36],0
same,"Plant response rating, Barnyardgrass",[23]; [32],80
same,Barnyardgrass plant response rating,[23]; [33],40
same,"Plant response rating, Barnyardgrass",[23]; [34],0
same,"Plant response rating, Barnyardgrass",[23]; [35],0
same,"Plant response rating (scale 0 to 100), Barnyardgrass",[23]; [36],0
same,Flatsedge plant response rating,[24]; Rate 250 g/ha,100
same,Flatsedge plant response rating,[24]; Rate 500 g/ha,100
same,"Plant response rating, Flatsedge","[24]; flooded paddy test, Rate 62 g/ha",50
same,"Plant response rating, Flatsedge","[24]; flooded paddy test, Rate 125 g/ha",80
same,"Plant response rating (scale 0 to 100), Flatsedge",[24]; [36],30
